The values that follow come from paper PMC4504433 (ACS Chemical Biology, 2014).

The test system of the experiment is H3K79me2 in A431 cells. As to the kind of experiment: High content imaging assay of H3K79me2. To be noted: 4 days.

On to `Nc1ncnc2c1ncn2[C@@H]1O[C@H](CSCC[C@H](N)C(=O)O)[C@@H](O)[C@H]1O` [SAH], for which the “reduction of H3K79 methylation, result in words” value is reported as “ineffective”.
